Reference: publication PMC11589570, “Critical assessment of LC3/GABARAP ligands used for degrader development and ligandability of LC3/GABARAP binding pockets” (Nature Communications, 2024)
Like-named read-outs stand apart in the source and are kept apart here.

Target: GABARAPL2 (Homo sapiens, UniProt P60520)
Details: GABARAPL2:ligand molar ratio 1:2

Sequence of GABARAPL2 (P60520 whole entry): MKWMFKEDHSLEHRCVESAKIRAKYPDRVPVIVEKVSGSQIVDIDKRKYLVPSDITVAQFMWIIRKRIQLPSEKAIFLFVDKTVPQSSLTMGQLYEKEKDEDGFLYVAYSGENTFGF

O=C1Nc2ccc(Br)cc2C1=Cc1cc(O)c(O)c(Br)c1 [compound 1]
CSP (residue A19): 0.023 ppm
CSP (residue A23): 0.017 ppm
CSP (residue A58): 0.006 ppm
CSP (residue A75): 0.00152 ppm
CSP (residue A108): 0.001 ppm
CSP (residue C15): 0.010 ppm
CSP (residue D8): 0.011 ppm
CSP (residue D43): 0.002 ppm
CSP (residue D54): 0.011 ppm
CSP (residue D81): 0.00158 ppm
CSP (residue D100): 0.002 ppm
CSP (residue D102): 0.015 ppm
CSP (residue E7): 0.00272 ppm
CSP (residue E12): 0.006 ppm
CSP (residue E17): 0.011 ppm
CSP (residue E34): 0.012 ppm
CSP (residue E96): 0.00425 ppm
CSP (residue E98): 0.005 ppm
CSP (residue E101): 0.005 ppm
CSP (residue F5, estimated): 0.010 ppm
CSP (residue F60): 0.006 ppm
CSP (residue F77): 0.00374 ppm
CSP (residue F104): 0.019 ppm
CSP (residue F115): 0.011 ppm
CSP (residue G38): 0.024 ppm
CSP (residue G103): 0.009 ppm
CSP (residue G111): 0.00641 ppm
CSP (residue H9): 0.012 ppm
CSP (residue H13): 0.004 ppm
CSP (residue I21): 0.013 ppm
CSP (residue I32): 0.024 ppm
CSP (residue I41): 0.011 ppm
CSP (residue I44): 0.005 ppm
CSP (residue I55): 0.003 ppm
CSP (residue I63): 0.00457 ppm
CSP (residue I64): 0.007 ppm
CSP (residue I76): 0.00122 ppm
CSP (residue K2): 0.007 ppm
CSP (residue K6): 0.010 ppm
CSP (residue K20): 0.015 ppm
CSP (residue K24): 0.012 ppm
CSP (residue K35): 0.010 ppm
CSP (residue K46, estimated): 0.005 ppm
CSP (residue K48): 0.050 ppm
CSP (residue K66): 0.004 ppm
CSP (residue K82, estimated): 0.002 ppm
CSP (residue K97): 0.005 ppm
CSP (residue K99): 0.004 ppm
CSP (residue L11): 0.00364 ppm
CSP (residue L50): 0.025 ppm
CSP (residue L94): 0.011 ppm
CSP (residue L105): 0.027 ppm
CSP (residue M1): 0.00659 ppm
CSP (residue M4, estimated): 0.003 ppm
CSP (residue M61): 0.00531 ppm
CSP (residue M91): 0.003 ppm
CSP (residue P26, estimated): 0.020 ppm
CSP (residue P30, estimated): 0.040 ppm
CSP (residue P52, estimated): 0.020 ppm
CSP (residue P71, estimated): 0.002 ppm
CSP (residue P85, estimated): 0.002 ppm
CSP (residue Q40): 0.000721 ppm
CSP (residue Q59): 0.00467 ppm
CSP (residue Q86): 0.003 ppm
CSP (residue R14): 0.018 ppm
CSP (residue R22): 0.020 ppm
CSP (residue R28): 0.016 ppm
CSP (residue R47, estimated): 0.020 ppm
CSP (residue R65): 0.00158 ppm
CSP (residue R67): 0.006 ppm
CSP (residue S10): 0.010 ppm
CSP (residue S18): 0.00255 ppm
CSP (residue S37): 0.048 ppm
CSP (residue S39): 0.003 ppm
CSP (residue S53): 0.014 ppm
CSP (residue S72): 0.00173 ppm
CSP (residue S87): 0.000721 ppm
CSP (residue S88): 0.00152 ppm
CSP (residue S110): 0.00127 ppm
CSP (residue T56): 0.00374 ppm
CSP (residue T90): 0.0011 ppm
CSP (residue V16): 0.014 ppm
CSP (residue V29): 0.043 ppm
CSP (residue V31): 0.038 ppm
CSP (residue V33): 0.013 ppm
CSP (residue V42): 0.00279 ppm
CSP (residue V51): 0.046 ppm
CSP (residue V57): 0.004 ppm
CSP (residue V80): 0.008 ppm
CSP (residue V84): 0.00263 ppm
CSP (residue V107): 0.006 ppm
CSP (residue W62): 0.015 ppm
CSP (residue Y25): 0.034 ppm
CSP (residue Y49): 0.064 ppm
CSP (residue Y106): 0.023 ppm
CSP (residue Y109): 0.009 ppm
